DC50 data for twelve compounds are collected here from US12486290B2, “Isoindolinone and indazole compounds for the degradation of EGFR” (C4 THERAPEUTICS, INC., priority 2019, dated 2025).

In this assay the target is T1, EGFR T790M/L858R (NCI-H1975 cells) (Homo sapiens, UniProt P00533, L858R/T790M).
T1 construct: NCI-H1975 (harboring EGFR heterozygous T790M/L858R mutations); host or cells: NCI-H1975
As to the kind of experiment: EGFR (L858R) degradation analysis, Total EGFR (L858R) HTRF, NCI-H1975 cells. The class given is cell-based. Particulars: 6 hours. The text has this:
NCI-H1975 (harboring EGFR heterozygous T790M/L858R mutations) and NCI-H3255 (harboring EGFR heterozygous L858R mutation) were purchased from ATCC and NCI, respectively. NCI-H1975+CS (harboring EGFR heterozygous T/790M/L858R/C797S mutations) was generated using CRISPR technology to introduce the additional C797S mutation by Horizon Discovery. RPMI 1640 no-phenol red medium and fetal bovine serum (FBS) were purchased from Gibco (Grand Island, NY, USA). Cell culture flasks and 384-well microplates were acquired from VWR (Radnor, PA, USA). Total EGFR (L858R) HTRF assay kits were purchased from Cisbio (Bedford, MA, USA).
Degradation of EGFR protein containing L858R mutation was determined based on quantification of FRET signal using Total EGFR (L858R) HTRF assay kit. Test compounds were added to the 384-well plate from a top concentration of 10 μM with 11 points, half log titration in duplicates. NCI-H1975, NCI-H1975+CS or NCI-H3255 cells were added into 384-well plates at a cell density of 10000, 10000 or 1000 cells per well, respectively. The plates were kept at 37° C. with 5% CO2 for 6 hours. Cells treated in the absence of the test compound were the negative control. Positive control was set by wells containing all reagents but no cells. FRET signal was acquired on EnVision™ Multilabel Reader (PerkinElmer, Santa Clara, CA, USA).
A general note: TR-FRET usually uses a lanthanide donor and a delayed reading to cut background.

T1 sequence (P00533 25-1210 T790M/L858R): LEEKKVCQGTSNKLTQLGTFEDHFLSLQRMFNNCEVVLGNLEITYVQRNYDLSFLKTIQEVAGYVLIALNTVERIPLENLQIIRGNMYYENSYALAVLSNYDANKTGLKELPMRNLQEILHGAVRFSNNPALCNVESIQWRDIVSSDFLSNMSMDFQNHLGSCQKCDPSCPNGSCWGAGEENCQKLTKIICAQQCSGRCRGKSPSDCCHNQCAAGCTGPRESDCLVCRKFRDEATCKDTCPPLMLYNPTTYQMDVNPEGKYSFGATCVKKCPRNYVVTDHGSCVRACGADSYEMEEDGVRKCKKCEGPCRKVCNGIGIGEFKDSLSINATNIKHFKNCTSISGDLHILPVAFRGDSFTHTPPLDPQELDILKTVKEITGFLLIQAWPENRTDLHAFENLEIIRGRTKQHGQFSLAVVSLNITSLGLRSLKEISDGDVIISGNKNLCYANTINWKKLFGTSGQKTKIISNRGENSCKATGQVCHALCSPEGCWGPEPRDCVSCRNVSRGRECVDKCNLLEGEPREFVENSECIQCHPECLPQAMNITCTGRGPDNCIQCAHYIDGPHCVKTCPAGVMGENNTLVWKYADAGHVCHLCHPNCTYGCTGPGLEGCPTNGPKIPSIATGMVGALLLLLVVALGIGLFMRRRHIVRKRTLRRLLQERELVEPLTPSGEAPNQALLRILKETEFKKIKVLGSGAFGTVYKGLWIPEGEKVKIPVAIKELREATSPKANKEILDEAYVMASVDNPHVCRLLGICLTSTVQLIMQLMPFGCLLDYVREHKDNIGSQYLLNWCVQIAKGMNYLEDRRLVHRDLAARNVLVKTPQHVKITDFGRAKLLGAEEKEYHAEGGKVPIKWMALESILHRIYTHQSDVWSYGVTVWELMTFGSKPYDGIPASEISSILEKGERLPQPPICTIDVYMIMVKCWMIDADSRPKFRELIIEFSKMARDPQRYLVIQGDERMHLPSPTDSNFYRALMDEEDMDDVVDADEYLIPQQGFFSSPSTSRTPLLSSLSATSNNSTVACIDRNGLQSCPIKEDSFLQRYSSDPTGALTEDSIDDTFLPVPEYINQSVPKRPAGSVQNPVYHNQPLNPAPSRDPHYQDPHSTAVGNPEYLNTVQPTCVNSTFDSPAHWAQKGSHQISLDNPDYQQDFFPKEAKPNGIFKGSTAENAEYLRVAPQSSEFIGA

The term DC50 denotes the concentration at which degradation of the target reaches its halfway point. Read a high DC50 as degradation only at high concentration. In turn, `O=C1CCC(Oc2ccc(N3CCN(CC(=O)N4CCC(NC(=O)c5ccc(C#Cc6cc(F)c7c(c6)C(=O)N(C(C(=O)Nc6nccs6)c6ncn8c6CCC8)C7)cn5)CC4)CC3)cc2)C(=O)N1` (racemic) [Compound 3, 5-[2-[7-Fluoro-3-oxo-2-[(1RS)-1-(6,7-dihydro-5H-pyrrolo[1,2-c]imidazol-1-yl)-2-oxo-2-(thiazol-2-ylamino)ethyl]isoindolin-5-yl]ethynyl]-N-[1-[2-[4-[4-[[(3RS)-2,6-dioxo-3-piperidyl]oxy]phenyl]piperazin-1-yl]acetyl]-4-piperidyl]pyridine-2-carboxamide] had a DC50 of 0.004 µM.
Consider `O=C1CCC(Nc2ccc(C3CCN(C(=O)CCCN4CCN(c5ccc(-c6cc(F)c7c(c6)C(=O)N(C(C(=O)Nc6nccs6)c6ncn8c6CCC8)C7)cc5)CC4)CC3)cc2)C(=O)N1` (racemic) [Compound 8, (2RS)-2-(6,7-Dihydro-5H-pyrrolo[1,2-c]imidazol-1-yl)-2-[4-fluoro-1-oxo-6-[4-[4-[4-oxo-4-[4-[4-[[(3RS)-2,6-dioxo-3-piperidyl]amino]phenyl]-1-piperidyl]butyl]piperazin-1-yl]phenyl]isoindolin-2-yl]-N-thiazol-2-yl-acetamide], for which half-maximal degradation (DC50) was put at 0.017 µM.
As to `O=C1CCC(Nc2ccc(C3CCC(CC(=O)N4CCN(c5ccc(-c6cc(F)c7c(c6)C(=O)N(C(C(=O)Nc6nccs6)c6ncn8c6CCC8)C7)cc5)CC4)CC3)cc2)C(=O)N1` (racemic) [Compound 9, (2RS)-2-(6,7-Dihydro-5H-pyrrolo[1,2-c]imidazol-1-yl)-2-[4-fluoro-1-oxo-6-[4-[4-[2-[4-[4-[[(3RS)-2,6-dioxo-3-piperidyl]amino]phenyl]cyclohexyl]acetyl]piperazin-1-yl]phenyl]isoindolin-2-yl]-N-thiazol-2-yl-acetamide], it took 0.03 µM to reach half-maximal degradation (DC50).
Under `O=C1CCC(Nc2ccc(C3CCN(CC(=O)N4CCN(c5ccc(-c6cc(Cl)c7cn(C(C(=O)Nc8nccs8)c8ncn9c8CCC9)nc7c6Cl)cc5)CC4)CC3)cc2)C(=O)N1` (racemic) [Compound 61, (2RS)-2-[4,7-Dichloro-6-[4-[4-[2-[4-[4-[[(3RS)-2,6-dioxo-3-piperidyl]amino]phenyl]-1-piperidyl]acetyl]piperazin-1-yl]phenyl]indazol-2-yl]-2-(6,7-dihydro-5H-pyrrolo[1,2-c]imidazol-1-yl)-N-thiazol-2-yl-acetamide] stands 0.112 µM; under `O=C1CCC(N2Cc3c(OC4CCN(C(=O)CCCN5CCN(c6ccc(-c7ccc8cn(C(C(=O)Nc9nccs9)c9ncn%10c9CCC%10)nc8c7F)cn6)CC5)CC4)cccc3C2=O)C(=O)N1` (racemic) [Compound 62, (2RS)-2-(6,7-Dihydro-5H-pyrrolo[1,2-c]imidazol-1-yl)-2-[7-fluoro-6-[6-[4-[4-oxo-4-[4-[1-oxo-2-[(3RS)-2,6-dioxo-3-piperidyl]isoindolin-4-yl]oxy-1-piperidyl]butyl]piperazin-1-yl]-3-pyridyl]indazol-2-yl]-N-thiazol-2-yl-acetamide], 0.019 µM.
The same measure for `O=C1CCC(Nc2ccc(C3CCN(CC(=O)N4CCN(c5ccc(-c6ccc7cn(C(C(=O)Nc8nccs8)c8ncn9c8CCC9)nc7c6F)cn5)CC4)CC3)cc2)C(=O)N1` (racemic) [Compound 63, (2RS)-2-(6,7-Dihydro-5H-pyrrolo[1,2-c]imidazol-1-yl)-2-[7-fluoro-6-[6-[4-[2-[4-[4-[[(3RS)-2,6-dioxo-3-piperidyl]amino]phenyl]-1-piperidyl]acetyl]piperazin-1-yl]-3-pyridyl]indazol-2-yl]-N-thiazol-2-yl-acetamide]: 0.081 µM; for `O=C1CCC(Nc2ccc(C3CCN(CC(=O)N4CC5(C4)CN(c4ccc(-c6cc(F)c7c(c6)C(=O)N(C(C(=O)Nc6nccs6)c6ncn8c6CCC8)C7)cc4)C5)CC3(F)F)cc2)C(=O)N1` (single isomer, unassigned) [Compound 51, 2-(6,7-dihydro-5H-pyrrolo[1,2-c]imidazol-1-yl)-2-(6-(4-(6-(2-(4-(4-((2,6-dioxopiperidin-3-yl)amino)phenyl)-3,3-difluoropiperidin-1-yl)acetyl)-2,6-diazaspiro[3.3]heptan-2-yl)phenyl)-4-fluoro-1-oxoisoindolin-2-yl)-N-(thiazol-2-yl)acetamide]: 0.013 µM.
On to `O=C1CCC(Nc2ccc(CC(=O)N3CCC(NC(=O)c4ccc(C#Cc5cc(F)c6c(c5)C(=O)N(C(C(=O)Nc5nccs5)c5ncn7c5CCC7)C6)cn4)CC3)cc2)C(=O)N1` (stereo not drawn) [Compound 2, 5-[2-[2-[1-(6,7-dihydro-5H-pyrrolo[1,2-c]imidazol-1-yl)-2-oxo-2-(thiazol-2-ylamino)ethyl]-7-fluoro-3-oxo-isoindolin-5-yl]ethynyl]-N-[1-[2-[4-[(2,6-dioxo-3-piperidyl)amino]phenyl]acetyl]-4-piperidyl]pyridine-2-carboxamide], for which half-maximal degradation (DC50) was put at 0.007 µM.
Under `O=C1CC[C@@H](Nc2ccc(C3CCN(CC(=O)N4CCN(c5ccc(-c6cc(F)c7c(c6)C(=O)N(C(C(=O)Nc6nccs6)c6ncn8c6CCC8)C7)cc5)CC4)CC3)cc2)C(=O)N1` (stereo partly drawn) [Compound 7, 2-(6,7-dihydro-5H-pyrrolo[1,2-c]imidazol-1-yl)-2-[6-[4-[4-[2-[4-[4-[[(3R)-2,6-dioxo-3-piperidyl]amino]phenyl]-1-piperidyl]acetyl]piperazin-1-yl]phenyl]-4-fluoro-1-oxo-isoindolin-2-yl]-N-thiazol-2-yl-acetamide] stands 0.018 µM.
Under `O=C1CCC(Nc2ccc(C3CCN(CC(=O)N4CCN(c5ccc(-c6cc(F)c7c(c6)C(=O)N(C(C(=O)Nc6nccs6)c6ncn8c6CCC8)C7)cc5)CC4)CC3)cc2F)C(=O)N1` (stereo not drawn) [Compound 13, 2-(6,7-dihydro-5H-pyrrolo[1,2-c]imidazol-1-yl)-2-[6-[4-[4-[2-[4-[4-[(2,6-dioxo-3-piperidyl)amino]-3-fluoro-phenyl]-1-piperidyl]acetyl]piperazin-1-yl]phenyl]-4-fluoro-1-oxo-isoindolin-2-yl]-N-thiazol-2-yl-acetamide] stands 0.052 µM.
As to `O=C1CCC(Nc2cccc(C3CCN(CC(=O)N4CCN(c5ccc(-c6cc(F)c7c(c6)C(=O)N(C(C(=O)Nc6nccs6)c6ncn8c6CCC8)C7)cc5)CC4)CC3)c2)C(=O)N1` (stereo not drawn) [Compound 16, 2-(6,7-dihydro-5H-pyrrolo[1,2-c]imidazol-1-yl)-2-(6-(4-(4-(2-(4-(3-((2,6-dioxopiperidin-3-yl)amino)phenyl)piperidin-1-yl)acetyl)piperazin-1-yl)phenyl)-4-fluoro-1-oxoisoindolin-2-yl)-N-(thiazol-2-yl)acetamide], the half-maximal degradation concentration (DC50) is 0.092 µM.
In turn, `O=C1CCC(Nc2ccc(N3CCC(O)(CC(=O)N4CCN(c5ccc(-c6cc(F)c7c(c6)C(=O)N(C(C(=O)Nc6nccs6)c6ncn8c6CCC8)C7)cc5)CC4)CC3)c(C(F)(F)F)c2)C(=O)N1` (stereo not drawn) [Compound 18, 2-(6,7-dihydro-5H-pyrrolo[1,2-c]imidazol-1-yl)-2-(6-(4-(4-(2-(1-(4-((2,6-dioxopiperidin-3-yl)amino)-2-(trifluoromethyl)phenyl)-4-hydroxypiperidin-4-yl)acetyl)piperazin-1-yl)phenyl)-4-fluoro-1-oxoisoindolin-2-yl)-N-(thiazol-2-yl)acetamide] yielded a DC50 of 0.046 µM.
